These results are taken from ChEMBL document CHEMBL4118125, “MK-8325: A silyl proline-containing NS5A inhibitor with pan-genotype activity for treatment of HCV” (Bioorg Med Chem Lett, 2018).

Activity calls are given as the source filed them. No cut-off for these calls is given here.

The species entered for data set [1] is Homo sapiens. Kind of data set: Inhibition of sodium channel (unknown origin) at 30 uM.
For data set [2], the species on record is Homo sapiens. Kind of data set: Inhibition of IKs channel (unknown origin) at 30 uM.
Data set [3] can be described thus: Effective half life in Sprague-Dawley rat at 2.5 mg/kg, iv by LC-MS/MS method. The format is ADME, organism-based. The following applies: in vivo, read-out: t1/2eff (converted).
The next data set relates to Canis familiaris. Kind of data set: AUC in beagle dog at 1 mg/kg, po by LC-MS/MS method. In kind it is ADME, organism-based, Canis lupus familiaris. The settings on record: in vivo.
Data set [4] addresses T1, Nuclear receptor subfamily 1 group I member 2 (Homo sapiens, UniProt O75469).
T1 sequence (O75469 whole entry): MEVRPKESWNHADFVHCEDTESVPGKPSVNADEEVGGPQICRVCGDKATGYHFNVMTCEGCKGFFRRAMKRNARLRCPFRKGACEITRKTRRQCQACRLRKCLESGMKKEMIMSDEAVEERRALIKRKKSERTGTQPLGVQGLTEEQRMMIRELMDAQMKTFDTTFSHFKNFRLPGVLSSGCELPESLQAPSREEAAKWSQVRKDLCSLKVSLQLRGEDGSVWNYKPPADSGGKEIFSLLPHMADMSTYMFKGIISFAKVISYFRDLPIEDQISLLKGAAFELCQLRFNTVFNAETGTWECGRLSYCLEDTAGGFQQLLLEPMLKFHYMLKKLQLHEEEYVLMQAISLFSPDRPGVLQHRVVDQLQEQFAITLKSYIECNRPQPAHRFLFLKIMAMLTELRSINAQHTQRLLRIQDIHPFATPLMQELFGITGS
Kind of data set: Activation of PXR (unknown origin). In kind it is ADME.

Data set [5] is described as follows: Drug level in Sprague-Dawley rat at 2 mg/kg, po after 24 hrs by LC-MS/MS method. In kind it is ADME, organism-based. The following applies: in vivo, read-out: Drug uptake.
Data set [6] is described as follows: Effective half life in beagle dog at 1 mg/kg, iv by LC-MS/MS method. The format is ADME, organism-based, Canis lupus familiaris. The following applies: in vivo, read-out: t1/2eff (converted).
A short description of data set [7]: Clearance in cynomolgus monkey at 1 mg/kg, iv by LC-MS/MS method. The format is ADME, organism-based, Macaca fascicularis. The settings on record: in vivo.
Data set [8] in a line: Clearance in beagle dog at 1 mg/kg, iv by LC-MS/MS method. The settings on record: in vivo. The format is ADME, organism-based, Canis lupus familiaris.
A further data set addresses Cytochrome P450 3A4 (Homo sapiens, UniProt P08684). In words: Inhibition of CYP3A4 (unknown origin). The format is ADME.
The nature of data set [9]: Effective half life in cynomolgus monkey at 1 mg/kg, iv by LC-MS/MS method. The settings on record: in vivo, read-out: t1/2eff (converted). In kind it is ADME, organism-based, Macaca fascicularis.
The test system of a further data set is Rattus norvegicus. Kind of data set: AUC in Sprague-Dawley rat at 2 mg/kg, po by LC-MS/MS method. The format is ADME, organism-based. The following applies: in vivo.
The target of a further data set is Cytochrome P450 2D6 (Homo sapiens, UniProt P10635). Kind of data set: Inhibition of CYP2D6 (unknown origin). The format is ADME.
Chain of Cytochrome P450 2D6 (P10635 whole entry): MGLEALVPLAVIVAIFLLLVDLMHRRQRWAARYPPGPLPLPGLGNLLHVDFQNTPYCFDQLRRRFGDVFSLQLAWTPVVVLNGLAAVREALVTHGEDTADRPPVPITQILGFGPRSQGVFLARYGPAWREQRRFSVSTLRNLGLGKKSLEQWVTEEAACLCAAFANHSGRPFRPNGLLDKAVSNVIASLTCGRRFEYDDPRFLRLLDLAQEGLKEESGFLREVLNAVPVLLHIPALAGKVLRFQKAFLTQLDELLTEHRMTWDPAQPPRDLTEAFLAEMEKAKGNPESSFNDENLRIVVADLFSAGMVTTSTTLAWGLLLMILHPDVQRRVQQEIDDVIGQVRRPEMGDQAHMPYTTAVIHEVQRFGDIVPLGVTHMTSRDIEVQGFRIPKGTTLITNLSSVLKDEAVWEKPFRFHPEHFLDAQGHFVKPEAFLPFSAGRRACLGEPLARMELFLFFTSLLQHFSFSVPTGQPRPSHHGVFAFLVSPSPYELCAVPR
A short description of data set [10]: Oral bioavailability in Sprague-Dawley rat at 2 mg/kg by LC-MS/MS method. The format is ADME, organism-based. The settings on record: in vivo.
A short description of data set [11]: Clearance in Sprague-Dawley rat at 2.5 mg/kg, iv by LC-MS/MS method. In kind it is ADME, organism-based. The following applies: in vivo.
Data set [12] can be described thus: Drug level in beagle dog at 1 mg/kg, po after 24 hrs by LC-MS/MS method. In kind it is ADME, organism-based, Canis lupus familiaris. The following applies: in vivo, read-out: Drug uptake.
Data set [13] in a line: Cytotoxicity in human HuH7 replicon cells by MTS assay. In kind it is cell-based, Huh-7.
For another data set, the target named is Cytochrome P450 2C9 (Homo sapiens, UniProt P11712). Kind of data set: Inhibition of CYP2C9 (unknown origin). In kind it is ADME.
Chain of Cytochrome P450 2C9 (P11712 whole entry): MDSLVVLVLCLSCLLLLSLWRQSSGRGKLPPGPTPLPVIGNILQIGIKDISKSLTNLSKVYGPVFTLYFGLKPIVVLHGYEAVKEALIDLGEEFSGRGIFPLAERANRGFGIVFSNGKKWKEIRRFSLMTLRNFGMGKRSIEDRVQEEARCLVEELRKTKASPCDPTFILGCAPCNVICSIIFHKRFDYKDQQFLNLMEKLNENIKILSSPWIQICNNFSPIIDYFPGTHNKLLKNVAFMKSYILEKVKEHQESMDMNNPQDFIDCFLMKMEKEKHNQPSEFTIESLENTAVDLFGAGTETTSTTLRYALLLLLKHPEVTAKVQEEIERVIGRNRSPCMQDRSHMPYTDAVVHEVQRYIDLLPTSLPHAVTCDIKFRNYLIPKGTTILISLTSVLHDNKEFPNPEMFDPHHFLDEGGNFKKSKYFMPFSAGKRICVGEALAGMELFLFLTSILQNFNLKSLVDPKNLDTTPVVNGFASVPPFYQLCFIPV
Data set [14] can be described thus: Oral bioavailability in beagle dog at 1 mg/kg by LC-MS/MS method. The format is ADME, organism-based, Canis lupus familiaris. The settings on record: in vivo.

Chain of Cytochrome P450 3A4 (P08684 whole entry): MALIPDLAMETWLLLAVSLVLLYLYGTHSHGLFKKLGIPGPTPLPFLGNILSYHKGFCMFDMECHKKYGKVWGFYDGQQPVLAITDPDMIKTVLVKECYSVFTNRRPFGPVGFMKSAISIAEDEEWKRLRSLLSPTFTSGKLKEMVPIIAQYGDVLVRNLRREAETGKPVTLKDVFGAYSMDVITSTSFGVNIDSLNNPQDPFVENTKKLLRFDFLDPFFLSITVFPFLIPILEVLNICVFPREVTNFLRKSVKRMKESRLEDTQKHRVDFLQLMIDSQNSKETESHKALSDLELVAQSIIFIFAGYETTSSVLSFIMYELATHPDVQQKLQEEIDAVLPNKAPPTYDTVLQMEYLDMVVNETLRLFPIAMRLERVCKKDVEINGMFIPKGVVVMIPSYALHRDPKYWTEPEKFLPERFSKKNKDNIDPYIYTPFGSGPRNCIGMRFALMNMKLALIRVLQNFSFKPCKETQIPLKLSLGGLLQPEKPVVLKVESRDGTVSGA

Turning to `COC(=O)N[C@H](C(=O)N1CC(F)(F)C[C@H]1c1ncc(-c2ccc(-c3ccc4c(ccc5nc([C@@H]6C[Si](C)(C)CN6C(=O)[C@@H](NC(=O)OC)C(C)C)[nH]c54)c3)cc2)[nH]1)C(C)C`, the inhibition result in the data set filed under Homo sapiens [1] is “inactive”.
For `COC(=O)N[C@H](C(=O)N1CCC[C@H]1c1ncc(-c2ccc(-c3cc4cc(-c5cnc([C@@H]6CCCN6C(=O)[C@@H](NC(=O)OC)C(C)C)[nH]5)ccc4o3)cc2)[nH]1)C(C)C`, the inhibition entry in the data set filed under Homo sapiens [2] is “inactive”. The figures for the half-life in [3], in [6] and in data set [9] were 2 h, 4.7 h and 3 h, respectively. Besides, the values for the AUC in the data set with Canis familiaris and in the data set on Rattus norvegicus were 1.1 uM.hr/ml and 1.7 uM.hr/ml, respectively. For the same compound, in data set [4], the Activity worked out at 3 µM. Also, the concentration at 24 h in data set [5] and in data set [12] was 4 nM throughout. Besides, the clearance was determined as 9.1 mL/min/kg in [7], 6.4 mL/min/kg in data set [8] and 9.3 mL/min/kg in [11]. For the same compound, the INH at Cytochrome P450 3A4, at Cytochrome P450 2D6 and at Cytochrome P450 2C9 was above 20 µM in each case. Moreover, the bioavailability in [10] turned out to be 38%; in data set [14], 26%. In data set [13], this compound came in with a CC50 of 7 µM.
